Laboratory results: patent US12251427B2, “Reduced oxygen carriers and their use for the treatment of carboxyhemoglobinemia” (priority 2016, dated 2025)

How the values were obtained:
[1] = LD50 dose in mice (calculated); conditions: mice of approximately 25 g
[2] = rats; cited from earlier work
[3] = cited from earlier work
HbCO = HbCO removal in CO poisoned mice (1500 ppm CO, moderate CO poisoning model); type: in vivo; conditions: after 5 minutes of return to normal air, 250 μL of 8-12 mM infused
Experimental: FIG. 1 is a graph showing the in vivo binding of CO from hemoglobin by recombinant neuroglobin in a mouse model for moderate CO poisoning.
(§1) It was previously shown that exposure of mice to air with 1500 ppm CO gas for an average of 50 minutes caused HbCO levels to increase to 64%+/−1% (PCT Publication No. WO 2014/150413). Prior to exposure, mice were surgically instrumented with placement of femoral artery and vein catheters for blood pressure monitoring, blood sampling and infusions of either recombinant neuroglobin (rNgb), another type of CO scavenging globin protein, or PBS as a control. Mice were infused with 250 μL of 8-12 mM rNgb or PBS within 4 minutes using a Harvard infusion pump. Immediately after infusion and every 5 minutes, 5 μL of blood was collected for measurement of HbCO. […] In particular, after 5 minutes of return to normal air, the HbCO levels dropped by an average of 32.8% in the group that received rNgb versus 13.3% in the group that received PBS (FIG. 1).

[4] = rNgb found in urinary bladder after infusion; type: in vivo; conditions: after 60 minutes, mice sacrificed
Experimental: as §1

| Molecule | LD50 dose in mice [1] | LD50 [2] [mg/kg body weight] | predicted human LD50 [3] [mg/kg] | drop of HbCO levels (HbCO) [%] | rNgb in urinary bladder [4] |
| --- | --- | --- | --- | --- | --- |
| O=S([O-])S(=O)[O-].[Na+].[Na+] [Dithionite, sodium dithionite] | about 62.5 mg | 2500 | 500 |  |  |
| rNgb: recombinant neuroglobin, another type of CO scavenging globin protein (protein, UniProt Q9NPG2 1-151, looked up) Neuroglobin: MERPEPELIRQSWRAVSRSPLEHGTVLFARLFALEPDLLPLFQYNCRQFSSPEDCLSSPEFLDHIRKVMLVIDAAVTNVEDLSSLEEYLASLGRKHRAVGVKLSSFSTVGESLLYMLEKCLGPAFTPATRAAWSQLYGAVVQAMSRGWDGE |  |  |  | 32.8 | millimolar concentrations |
